For data set [1] the following is noted: at a pH of 6.4.
Data set [2] in a line: Compatibility of quaternary ammonium preservative with brimonidine (precipitation). In kind it is physicochemical. The following applies: pH of around 6.0. The text has this:
Benzododecinium bromide forms an ion pair with brimonidine, thereby neutralizing the charge of brimonidine.
Benzododecinium halide (e.g., bromide) forms an ion pair with brimonidine, thereby neutralizing the charge of brimonidine. […] Thus it was surprising to find that benzododecinium halide is compatible with brimonidine.

The conditions of data set [3]: cited from earlier work.

Where two headings read alike, the source gives them in different places.

For `Brc1c(NC2=NCCN2)ccc2nccnc12` [Brimonidine], the ionized result in data set [1] is on record as “about 90%”.
Regarding benzalkonium chloride, the precipitation with brimonidine entry in data set [2] is reported as “forms a hazy solution”.
On the same count and under the same terms, then `CCCCCCCCCCCC[N+](C)(C)Cc1ccccc1.[Br-]` [benzododecinium bromide], with “does not form a precipitation with brimonidine”.
As to brimonidine tartrate, the Solubility was at least 164.4 in data set [3] (Study 1, pH 5.55); 132.6 in data set [3] (Study 1, pH 5.92); 30.4 in data set [3] (Study 1, pH 6.14); 7.55 in data set [3] (Study 1, pH 6.57); 2.69 in data set [3] (Study 1, pH 7); 1.17 in data set [3] (Study 1, pH 7.45). The Solubility in data set [3] (Study 1, pH 7.83) is 0.62; in data set [3] (Study 2, pH 5.5) it was at least 200.6; in data set [3] (Study 2, pH 5.92), 160.8; in data set [3] (Study 2, pH 6.06), 50.1; in data set [3] (Study 2, pH 6.9) it was 3.19; in data set [3] (Study 2, pH 7.4), 1.19. The Solubility was 0.63 in data set [3] (Study 2, pH 7.77); 0.58 in data set [3] (Study 2, pH 7.86); 0.54 in data set [3] (Study 2, pH 7.88).

The values above are taken from patent US10517869B2 (SENTISS PHARMA PRIVATE LIMITED, priority 2013, dated 2019).
